Ten compounds from patent US8198307B2, “Imidazole derivatives having aryl piperidine substituent, method for preparation thereof and pharmaceutical compositions containing same” (Korea Research Institute of Chemical Technology, priority 2007, dated 2012) can be followed below.

In the experiment the target is T1, MCH R1 (melanine-concentrating hormone receptor-1) (Homo sapiens, UniProt Q99705).
T1 construct: purchased Euroscreen, Gosselies, Belgium
Put plainly: Inhibitory effects on MCH R1 binding (Eu-MCH time-resolved fluorescence binding assay). The conditions noted are these: concentration inhibiting the binding of MCH (Eu-MCH, 2 nM) to MCH R1 by 50% in vitro; TRF readout; test range 1 nM to 10 μM; read-out: IC50. The gist of the method:
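Receptor membranes were incubated 90 min at room temperature with 2 nM Eu-MCH and test compound (1 nM–10 μM final) in 25 mM HEPES pH 7.4, 5 mM MgCl2, 1 mM CaCl2, 0.5% BSA, then filter-washed. Nonspecific binding was defined with 0.5 μM MCH. Time-resolved fluorescence (ex 340/em 615 nm) gave percent inhibition of specific binding.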

T1 sequence (Q99705 whole entry, species assumed): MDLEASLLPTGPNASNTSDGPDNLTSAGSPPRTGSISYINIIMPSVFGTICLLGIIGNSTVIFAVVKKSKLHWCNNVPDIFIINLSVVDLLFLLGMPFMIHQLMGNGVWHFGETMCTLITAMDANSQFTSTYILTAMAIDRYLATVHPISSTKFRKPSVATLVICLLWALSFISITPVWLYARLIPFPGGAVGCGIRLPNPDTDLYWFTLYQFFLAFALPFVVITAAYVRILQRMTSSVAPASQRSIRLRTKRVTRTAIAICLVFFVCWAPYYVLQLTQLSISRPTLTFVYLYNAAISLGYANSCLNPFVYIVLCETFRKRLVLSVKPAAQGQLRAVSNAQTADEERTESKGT

With `CC(=O)Nc1cccc(C2CCN(CCCn3c(-c4cccnc4)nc4cc([N+](=O)[O-])ccc43)CC2)c1` [Example 117, 5-nitro-2-(pyridin-3-yl)-1-{3-[4-(3-acetamidophenyl)piperidin-1-yl]propyl}-1H-benzimidazole], the IC50 amounted to 3 nM.

Turning to `CC(=O)Nc1cccc(C2CCN(CCCn3c(-c4ccc(Br)o4)nc4cc(Cl)ccc43)CC2)c1` [Example 118, 5-chloro-2-(5-bromofuran-2-yl)-1-{3-[4-(3-acetamidophenyl)piperidin-1-yl]propyl}-1H-benzimidazole], the IC50 came out at 20 nM. Take `COc1ccc2c(c1)nc(-c1ccco1)n2CCCN1CCC(c2cccc(NC(C)=O)c2)CC1` [Example 119, 2-(furan-2-yl)-5-methoxy-1-{3-[4-(3-acetamidophenyl)piperidin-1-yl]propyl}-1H-benzimidazole]: the IC50 came to 249 nM. As for `CC(=O)Nc1cccc(C2CCN(CCCn3c(-c4ccsc4)nc4cc(C)ccc43)CC2)c1` [Example 120, 5-methyl-2-(thiophen-3-yl)-1-{3-[4-(3-acetamidophenyl)piperidin-1-yl]propyl}-1H-benzimidazole], the figure is 1 nM; as for `CC(=O)Nc1cccc(C2CCN(CCCn3c(-c4cccn4C)nc4cc(C)c(C)cc43)CC2)c1` [Example 121, 5,6-dimethyl-2-(1-methylpyrrol-2-yl)-1-{3-[4-(3-acetamidophenyl)piperidin-1-yl]propyl}-1H-benzimidazole], 5 nM; as for `CC(=O)Nc1cccc(C2CCN(CCCn3c(-c4cscn4)nc4ccccc43)CC2)c1` [Example 122, 2-(thiazol-4-yl)-1-{3-[4-(3-acetamidophenyl)piperidin-1-yl]propyl}-1H-benzimidazole], 306 nM. With `CC(=O)Nc1cccc(C2CCN(CCCn3c(-c4ocnc4C)nc4ccccc43)CC2)c1` [Example 123, 2-(4-methyloxazol-5-yl)-1-{3-[4-(3-acetamidophenyl)piperidin-1-yl]propyl}-1H-benzimidazole], the IC50 was found to be 3 nM.

Consider `CC(=O)Nc1cccc(C2CCN(CCCn3c(Cc4ccccn4)nc4ccccc43)CC2)c1` [Example 125, 2-(pyridin-2-ylmethyl)-1-{3-[4-(3-acetamidophenyl)piperidin-1-yl]propyl}-1H-benzimidazole], for which the IC50 was found to be 2 nM.

With `CC(=O)Nc1cccc(C2CCN(CCCn3c(Cc4cccnc4)nc4ccccc43)CC2)c1` [Example 126, 2-(pyridin-3-ylmethyl)-1-{3-[4-(3-acetamidophenyl)piperidin-1-yl]propyl}-1H-benzimidazole], the 50% inhibitory concentration (IC50) was found to be 47 nM.

As for `CC(=O)Nc1cccc(C2CCN(CCCn3c(CCc4cccnc4)nc4ccccc43)CC2)c1` [Example 127, 2-[2-(pyridin-3-yl)ethyl]-1-{3-[4-(3-acetamidophenyl)piperidin-1-yl]propyl}-1H-benzimidazole], the IC50 is 1 nM.

As a reminder, the IC50 is the concentration that gives 50% inhibition.
